Test results: the OPERA property sets (Mansouri et al. 2018)

Compared with Cc1nnc(SCC2=C(C(=O)O)N3C(=O)[C@@H](NC(=O)Cn4cnnn4)[C@H]3SC2)s1, CC(=O)OCC1CCC(n2cnc3c(=O)[nH]cnc32)O1 (configuration not stated) is lower in logP: -0.58 for the first, -0.9 for the second.

First: Cc1c(O)c(=O)ccn1CCN
Second: CCCOC(=O)c1cc(O)c(O)c(O)c1
The logP of the first is lower: -1.55 for the first, 1.8 for the second.

Compared with CNC(=O)Oc1cccc(OC)c1, CNC(=O)Oc1ccc(C(=O)OC)cc1 is higher in logP: 1.3 for the first, 1.5 for the second.

First: Oc1c(F)c(F)c(F)c(F)c1F
Second: COC(=O)c1cc(O)c(O)c(O)c1
The logP of the first is higher: 3.23 for the first, 0.86 for the second.

First: Oc1cccc2c(Cl)ccnc12
Second: Nc1ccnc2c([N+](=O)[O-])cccc12
The logP of the first is higher: 2.67 for the first, 1.31 for the second.

Compared with CCOc1ccc(N)cc1, COc1ccc(C(N)=O)cc1 is lower in logP: 1.24 for the first, 0.86 for the second.

First: Cn1c(N)nc2cc(C#N)ccc21
Second: Cc1ccc2c(c1)nc(N)n2C
The logP of the first is lower: 1.11 for the first, 1.47 for the second.

Compared with CN(C)C#N, CN(C)c1nc(Cl)nc(N(C)C)n1 is higher in logP: -0.15 for the first, 2.31 for the second.

Going from Cc1ccccc1OCC(=O)O to O=C(O)COc1cccc(O)c1, the logP falls from 1.98 to 0.76.

First: O=C(O)c1cc(Cl)ccc1[N+](=O)[O-]
Second: O=[N+]([O-])c1cccc(Cl)c1
The logP of the first is lower: 2.13 for the first, 2.46 for the second.

Compared with CC(C)(C)C(O)C(Oc1ccc(-c2ccccc2)cc1)n1cncn1 (configuration not stated), CCCC(O)C(C(=O)O)c1ccc(-c2ccccc2)cc1 (configuration not stated) is lower in logP: 4.16 for the first, 3.75 for the second.

First: CCOC(=O)CON=Cc1ccc(OCC(=O)OCC)c(OC)c1
Second: C#CC(C)OC(=O)Nc1ccc(OCC)c(OCC)c1 (configuration not stated)
The logP of the first is lower: 1.87 for the first, 2.68 for the second.

First: COc1ccc(NC=O)cc1
Second: CON(C)C(=O)Nc1ccc(F)cc1
The logP of the first is lower: 1.03 for the first, 1.46 for the second.

Going from O=[N+]([O-])c1nccn1CCO to O=[N+]([O-])c1ccc2ncccc2c1, the logP rises from -0.47 to 1.84.

First: Fc1ccc(CCl)cc1
Second: CCCc1ccc(S(N)(=O)=O)cc1
The logP of the first is higher: 2.73 for the first, 1.64 for the second.

COc1ccc(Br)cc1-c1nc(N)nc(N)n1 and Nc1nc(N)nc(-c2ccccc2)n1 are within 0.2 log units of each other in logP: 1.53 for the first, 1.36 for the second.

CCn1cnc2c(NC(C)=O)ncnc21 and Cc1cc(C(=O)NN)ccn1 are within 0.2 log units of each other in logP: -0.41 for the first, -0.37 for the second.

Going from O=C(NP(=O)(N1CC1)N1CC1)c1cccc(I)c1 to O=C(O)c1cccc(C(=O)O)c1, the logP falls from 1.91 to 1.66.

Compared with Oc1cc(Cl)c(Cl)cc1Cl, CN(C)C(N(C)C)=S(I)c1cc(Cl)c(Cl)cc1Cl (configuration not stated) is lower in logP: 3.72 for the first, 0.68 for the second.

First: CCCCCCCCl
Second: CCCCCCC(NC(C)=O)C(=O)OC (configuration not stated)
The logP of the first is higher: 4.15 for the first, 1.7 for the second.

First: C=C1C(=O)OC2CC(C)C3C=CC(=O)C3(C)CC12 (configuration not stated)
Second: C[C@@H]1C[C@H]2[C@@H]3CCC4=CC(=O)C=C[C@]4(C)[C@@]3(F)[C@@H](O)C[C@]2(C)[C@@]1(O)C(=O)CO
The logP of the first is lower: 1.17 for the first, 1.83 for the second.

Compared with COC(=O)c1ccc[nH]1, CC(=O)Oc1ccccc1Br is higher in logP: 1.17 for the first, 2.2 for the second.

Going from NC(=O)Nc1cccc(OCC(=O)O)c1 to NC(=O)Nc1ccccc1F, the logP rises from 0.26 to 0.88.

First: O=C(O)c1ccc(N=C=S)cc1
Second: CC(=O)Oc1ccc(C(C)=O)cc1
The logP of the first is higher: 3.52 for the first, 1.29 for the second.

First: CCCCC1C(=O)NC(=O)NC1=O
Second: CCCC(=NOCC)C1C(=O)CC2(CCC(C)CC2)OC1=O (configuration not stated)
The logP of the first is lower: 0.77 for the first, 4.07 for the second.

Compared with COc1ccc(CN(CCN(C)C)c2ccccn2)cc1, COc1ccc2cc(C(C)C(=O)OCC(=O)N(C)CCO)ccc2c1 (configuration not stated) is lower in logP: 3.27 for the first, 2.01 for the second.

First: O=C(O)C1Cc2cc(Cl)ccc2O1 (configuration not stated)
Second: O=C(O)CCc1c[nH]c2ccccc12
The logP of the first is higher: 2.11 for the first, 1.75 for the second.

First: NC(=O)C1CCN(CCCN2c3ccccc3Sc3ccc(Cl)cc32)CC1
Second: CCOCc1ccccc1NC(=O)OCCN1CCCCC1
The logP of the first is higher: 4.44 for the first, 2.72 for the second.

First: c1ccc(Nc2cccc3ccccc23)cc1
Second: O=[N+]([O-])c1ccc(Nc2ccccc2)cc1
The logP of the first is higher: 4.2 for the first, 3.74 for the second.

Going from C=C(C)Cl to CC(=O)NO, the logP falls from 2 to -1.59.

CCC1Nc2cc(Cl)c(S(N)(=O)=O)cc2S(=O)(=O)N1 (configuration not stated) and CC(=O)c1ccc(S(N)(=O)=O)cc1 are within 0.2 log units of each other in logP: 0.3 for the first, 0.2 for the second.

Compared with c1ccc2nccnc2c1, c1ccc2cnccc2c1 is higher in logP: 1.32 for the first, 2.08 for the second.

Going from COc1cc(O)cc(OC)c1 to CC(C)CCOC(=O)c1cc(O)c(O)c(O)c1, the logP rises from 1.64 to 2.8.

Compared with Cn1c(=O)ccc2ccccc21, NS(=O)(=O)c1ccc2ncccc2c1 is lower in logP: 1.45 for the first, 0.56 for the second.

c1ccc(-n2cccc2)cc1 and FCCCc1ccccc1 are within 0.2 log units of each other in logP: 3.08 for the first, 2.95 for the second.

Fc1cccnc1 and OCCNc1ccccc1 are within 0.2 log units of each other in logP: 0.77 for the first, 0.82 for the second.

Compared with Cc1cc(Br)cnc1NS(=O)(=O)c1ccc(N)cc1, Nc1ccc(S(=O)(=O)Nc2ncccn2)cc1 is lower in logP: 2.05 for the first, -0.09 for the second.

First: Nc1c([N+](=O)[O-])cccc1[N+](=O)[O-]
Second: NC(=O)Nc1ccccc1Cl
The logP of the first is higher: 1.79 for the first, 1.27 for the second.

C=CCOc1ccccc1Cc1cnc(N)nc1N and CCc1ccc(OC(=O)NC)cc1 are within 0.2 log units of each other in logP: 2.31 for the first, 2.23 for the second.

Going from CCC12CC3CC(CC(N)(C3)C1)C2 to CCCOC1OC(CO)C(O)C(O)C1O (configuration not stated), the logP falls from 3.4 to -1.66.

O=c1cc[nH]cn1 and CN(C)C(N(C)C)=S(I)c1ccc(C(=O)O)cc1 (configuration not stated) are within 0.2 log units of each other in logP: -1.38 for the first, -1.28 for the second.
